Literature values as cited in patent US9446009B2, “Methods for treating conditions of the nail unit” (Hallux, Inc., priority 2004, dated 2016).
Converted amounts (≈) assume the structure as drawn.

Experiments:
Settings in all cases: in vitro
Trichophyton rubrum = tested on: Trichophyton rubrum
[1] = tested on: Trichophyton mentagrophytes
Trichophyton tonsurans = tested on: Trichophyton tonsurans
Trichophyton verrucosum = tested on: Trichophyton verrucosum

Compound	MIC Ranges (Trichophyton rubrum)	MIC Ranges [1]	MIC Ranges (Trichophyton tonsurans)	MIC Ranges (Trichophyton verrucosum) [µg/mL]
c1ccc(-c2ccc(C(c3ccccc3)n3ccnc3)cc2)cc1 (centres unmarked) [Bifonazole]	<0.016 to 1 µg/mL	0.125 to 0.25 µg/mL	≦0.016-0.5 mcg/ml	8 (≈ 25.8 µM)
Cc1cc(C2CCCCC2)n(O)c(=O)c1 [Ciclopiroxolamine]	<0.03 to 8 µg/mL	0.5 to 1 µg/mL	0.125 to 1 µg/mL	4 (≈ 19.3 µM)
OC(Cn1cncn1)(Cn1cncn1)c1ccc(F)cc1F [Fluconazole]	–	16 to 32 µg/mL	0.25 to 8 µg/mL	16 (≈ 52.2 µM)
COC1=CC(=O)C[C@@H](C)[C@]12Oc1c(Cl)c(OC)cc(OC)c1C2=O [Griseofulvin]	0.016 to 8 µg/mL	0.016 to 0.125 µg/mL	0.5 to 1 µg/mL	1 (≈ 2.83 µM)
CC(=O)N1CCN(c2ccc(OCC3COC(Cn4ccnc4)(c4ccc(Cl)cc4Cl)O3)cc2)CC1 (centres unmarked) [Ketoconazole]	–	0.008 to 4 µg/mL	0.016 to 0.125 µg/mL	4 (≈ 7.53 µM)
Clc1ccc(COC(Cn2ccnc2)c2ccc(Cl)cc2Cl)c(Cl)c1 (centres unmarked) [Miconazole]	0.008 to 4 µg/mL	1 µg/mL (≈ 2.4 µM)	0.016 to 0.25 µg/mL	4 (≈ 9.61 µM)
CN(C/C=C/C#CC(C)(C)C)Cc1cccc2ccccc12 [Terbinafine]	≦0.0001-1 ^ mcg/ml	≦S0.001 mcg/ml	≦0.001-0.008 mcg/ml	1 (≈ 3.43 µM)
